Data on three compounds can be found in patent publication US20130210846A1, “USE OF NOVEL PAN-CDK INHIBITORS FOR TREATING TUMORS” (BAYER INTELLECTUAL PROPERTY GMBH, priority 2010, published 2013).

Where only a bound is given, the exact number is not on record here.

Assay [1] deals with HT29. Put plainly: Proliferation assay HT29. The conditions noted are these: Homo sapiens, HT-29, 96 h; HT29, colon/rectum carcinoma; 4 days, crystal violet. The class given is cell-based. As to the method:
(§1) Cultivated human tumor cells (originally obtained from ATCC, HeLa-MaTu and HeLa-MaTu-ADR, originally obtained from Epo GmbH, Berlin, Germany) were plated at a density of 1000 to 5000 cells/measuring point, depending on the growth rate of the cell line, in a 96-well multititer plate in 200 μl of growth medium (DMEM/HAMS F12, 2 mM L-glutamine, 10% fetal calf serum). After 24 hours the cells of one plate (zero-point plate) were stained with crystal violet (see below), whereas the medium of the other plates was replaced with fresh culture medium (200 μl), to which the test substances had been added at various concentrations (0 μM, and in the range 0.01-30 μM; the final concentration of the solvent dimethyl sulfoxide was 0.5%). The cells were incubated for 4 days in the presence of the test substances. Cellular proliferation was determined by staining the cells with crystal violet: the cells were fixed by adding 20 μl/measuring point of an 11% glutaraldehyde solution for 15 min at room temperature. After washing the fixed cells with water three times, the plates were dried at room temperature. The cells were stained by adding 100 μl/measuring point of a 0.1% crystal violet solution (pH adjusted to pH3 by adding acetic acid). After washing the stained cells with water three times, the plates were dried at room temperature. The dye was dissolved by adding 100 μl/measuring point of a 10% acetic acid solution. The extinction was determined photometrically at a wavelength of 595 nm. The percentage change in cell growth was calculated by standardization of the measured values to the extinction values of the zero-point plate (=0%) and the extinction of the untreated (0 μM) cells (=100%). The measured data were standardized to 0% inhibition (cell proliferation without inhibitor) and 100% inhibition (zero-point plate). The IC50 values were determined by means of a 4-parameter fit using the company's own software.
(§2) The substances were examined in the following cell lines which, in an exemplary manner, represent the stated indications: […]

The subject of assay [2] is Caki2. Put plainly: Proliferation assay Caki2. The settings on record: Homo sapiens, CAKI-2, 96 h; Caki2, kidney carcinoma; 4 days, crystal violet. The assay is classed as cell-based. The procedure: as §1, §2
The test system of assay [3] is NCI-ADR-Res. As to the kind of experiment: Proliferation assay NCI-ADR-Res. The class given is cell-based. The settings on record: Homo sapiens, 96 h, ovarial carcinoma, 4 days, crystal violet. As to the method: as §1, §2
In assay [4] the target is T1, CDK2/CycE (Homo sapiens, UniProt P24941).
T1 construct: purchased ProQinase GmbH, Freiburg, Germany; host or cells: baculovirus-infected insect cells (Sf9)
As to the kind of experiment: CDK2/CycE kinase assay (Assay 2). The assay is classed as biochemical. The conditions noted are these: 0.5 μM ATP, histon IIIS, 10 min 22° C.; read-out: CDK2/CycE (Assay 2) Concentration for half-maximal inhibition of the enzyme activity, IC50. As to the method: Recombinant CDK2 and CycE-GST fusion proteins, purified from baculovirus-infected insect cells (Sf9), were purchased from ProQinase GmbH, Freiburg, Germany. Histon HIS, used as kinase substrate, was purchased from Sigma.
The reaction was stopped by adding EDTA solution (250 mM, pH 8.0, 15 μl/measuring point).
From each reaction mixture, 15 μl was applied to P30 filter strips (from Wallac), and unincorporated ^33P-ATP was removed by washing the filter strips three times, for 10 min each time, in 0.5% phosphoric acid. After drying the filter strips for 1 hour at 70° C., the filter strips were covered with scintillator strips (MeltiLex™ A, from Wallac) and stoved for 1 hour at 90° C. The amount of incorporated ^33P (substrate phosphorylation) was determined by scintillation measurement in a gamma-radiation measuring instrument (Wallac). […] The IC50 values were determined by means of a 4-parameter fit using the company's own software.

Assay [5] has as its system A549. As to the kind of experiment: Proliferation assay A549. The assay is classed as cell-based. The conditions noted are these: Homo sapiens, 96 h; A549, non-small-cell bronchial carcinoma; 4 days, crystal violet. As to the method:
as §1, §2

The target in assay [6] is T2, VEGF receptor tyrosine kinase-2 (VEGF-R2) (Homo sapiens, UniProt P35968).
T2 construct: GST; made in house; host or cells: baculovirus-infected insect cells (Sf9)
T2 sequence (P35968 20-1356, species assumed): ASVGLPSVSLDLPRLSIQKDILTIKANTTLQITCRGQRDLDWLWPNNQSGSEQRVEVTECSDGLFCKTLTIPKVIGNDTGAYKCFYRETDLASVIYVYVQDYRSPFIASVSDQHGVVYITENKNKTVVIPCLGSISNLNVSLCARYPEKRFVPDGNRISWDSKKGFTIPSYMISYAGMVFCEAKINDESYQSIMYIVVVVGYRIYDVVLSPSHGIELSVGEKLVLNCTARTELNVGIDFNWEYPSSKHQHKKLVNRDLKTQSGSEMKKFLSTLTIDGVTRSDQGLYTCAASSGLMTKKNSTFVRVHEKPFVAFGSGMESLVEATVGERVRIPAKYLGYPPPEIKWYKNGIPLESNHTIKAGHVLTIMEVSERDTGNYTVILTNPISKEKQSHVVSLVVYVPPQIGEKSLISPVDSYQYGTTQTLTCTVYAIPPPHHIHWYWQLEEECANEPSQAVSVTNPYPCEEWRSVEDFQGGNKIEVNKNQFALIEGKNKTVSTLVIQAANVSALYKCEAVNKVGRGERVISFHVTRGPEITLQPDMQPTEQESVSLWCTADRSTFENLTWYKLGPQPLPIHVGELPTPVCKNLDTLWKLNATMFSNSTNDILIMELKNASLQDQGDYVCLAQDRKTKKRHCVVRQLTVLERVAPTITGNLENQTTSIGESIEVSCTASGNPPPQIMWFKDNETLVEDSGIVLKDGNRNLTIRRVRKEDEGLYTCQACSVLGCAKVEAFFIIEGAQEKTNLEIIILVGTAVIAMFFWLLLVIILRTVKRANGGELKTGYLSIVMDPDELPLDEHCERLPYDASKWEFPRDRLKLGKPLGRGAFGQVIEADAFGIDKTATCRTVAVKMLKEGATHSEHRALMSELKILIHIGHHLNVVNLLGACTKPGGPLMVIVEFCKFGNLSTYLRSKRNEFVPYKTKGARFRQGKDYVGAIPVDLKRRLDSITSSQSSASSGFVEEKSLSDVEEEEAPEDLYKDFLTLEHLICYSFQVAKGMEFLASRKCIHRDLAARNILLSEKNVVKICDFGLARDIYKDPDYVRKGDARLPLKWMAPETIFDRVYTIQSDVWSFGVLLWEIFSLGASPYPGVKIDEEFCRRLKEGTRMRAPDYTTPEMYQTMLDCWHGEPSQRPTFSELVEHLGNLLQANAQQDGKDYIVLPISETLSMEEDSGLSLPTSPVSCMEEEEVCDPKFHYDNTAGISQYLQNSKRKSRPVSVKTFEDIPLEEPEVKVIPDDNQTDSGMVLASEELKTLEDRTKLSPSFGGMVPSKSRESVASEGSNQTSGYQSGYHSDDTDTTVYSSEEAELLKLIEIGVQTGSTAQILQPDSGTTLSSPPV
As to the kind of experiment: VEGF receptor-2 kinase assay (Assay 3). The assay is classed as biochemical. The conditions noted are these: 8 μM ATP, poly-(Glu4Tyr), 10 min 22° C.; read-out: VEGF-R2 (Assay 3) Concentration for half-maximal inhibition of the enzyme activity, IC50.

Assay [7] has as its system MDA-MB 453. As to the kind of experiment: Proliferation assay MDA-MB 453. The assay is classed as cell-based. The settings on record: Homo sapiens, 96 h; MDA-MB 453, estrogen receptor-negative mamma carcinoma; 4 days, crystal violet. The procedure: as §1, §2
Assay [8] has as its system NCI-H460. Put plainly: Proliferation assay NCI-H460. The class given is cell-based, human. The settings on record: NCI-H460, non-small-cell bronchial carcinoma, 4 days, crystal violet. The gist of the method:
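Crystal violet absorbance (595 nm) after 4-day compound exposure; cells in DMEM/HAMS F12, 10% FCS, 2 mM glutamine, 1000–5000 cells/well. Dose range 0.01–30 μM, 0.5% DMSO final. Normalised to untreated (0% inhibition) and day-0 plate (100%); IC50 via 4-parameter fit.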

Take `C[C@@H](O)[C@@H](C)Oc1nc(Nc2ccc(S(C)(=N)=O)cc2)ncc1C(F)(F)F` (single isomer, unassigned) [Example 2-SI-2]: the IC50 in assay [1] was 28 nM; in assay [2] it was 24 nM; in assay [3], 29 nM; in assay [4], 5 nM; in assay [5] it was 23 nM; in assay [6], 281 nM. In assay [7], the IC50 stood at 16 nM.
Consider `C[C@@H](O)[C@@H](C)Oc1nc(Nc2ccc(S(C)(=N)=O)cc2)ncc1C(F)(F)F` (mixture of isomers) [Example 2-SI-2, (RS)—S-(4-{[4-{[(1R,2R)-2-Hydroxy-1-methylpropyl]oxy}-5-(trifluoromethyl)pyrimidin-2-yl]-amino}phenyl)-S-methylsulfoximide], for which the IC50 in assay [8] was found to be 16 nM.
Turning to `C[C@@H](O)[C@@H](C)Nc1nc(Nc2ccc(S(=N)(=O)C3CC3)cc2)ncc1C(F)(F)F` (mixture of isomers) [Example 4-SI-1, (RS)—S-Cyclopropyl-S-(4-{[4-{[(1R,2R)-2-hydroxy-1-methylpropyl]amino}-5-(trifluoromethyl)-pyrimidin-2-yl]amino}phenyl)sulfoximide], the IC50 in assay [1] is 12 nM; in assay [2], less than 10 nM; in assay [3], 37 nM; in assay [8] (Homo sapiens, NCI-H460, 96 h), 16 nM; in assay [4], 6 nM; in assay [5], less than 10 nM. The IC50 in assay [6] was 46 nM; in assay [7], 11 nM.
